The results in this text go back to ChEMBL document CHEMBL1201862, “PubChem BioAssay data set” (2004).

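Five concentrations, 48 hours, 96-well plates. GI50 = concentration required for 50% inhibition of growth.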 Calls of active or inactive are those of the source. No stated cut-off is given here; in the data, active = GI50 up to about 1.1 µM and inactive = higher. Where only a bound is given, the exact number is not on record here.

Among the test systems are SF-268; MDA-MB-435; UO-31; NCI-H226; UACC-62; BT-549; MDA-N; A498; MCF7; SK-MEL-5; RXF 393; HOP-92; SK-MEL-28; SN12C; MOLT-4; KM-20L2; HCT-15; K562; HOP-62; EKVX.
What all share (assay): NCI anticancer screen, dose series, 48 h

`O=C1/C(=C/c2ccc(O)cc2)CCC1CNc1ccc(Cl)cc1` (stereo not given): the GI50 in the test with SF-268 is 3200 nM (inactive); in the test with MDA-MB-435 it was 3610 nM (inactive); with UO-31, 3010 nM (inactive); in the test on NCI-H226, 12600 nM (inactive); in the test on UACC-62, 367 nM (active); with BT-549, 12600 nM (inactive). Also, the GI50 is 6530 nM (inactive) with MDA-N; 15000 nM (inactive) with A498; 1340 nM (inactive) with MCF7; 4660 nM (inactive) with SK-MEL-5; 6310 nM (inactive) in the test on RXF 393; 14700 nM (inactive) in the test with HOP-92. Further, the GI50 in the test with SK-MEL-28 was 9950 nM (inactive); with SN12C, 3940 nM (inactive); in the test with MOLT-4, 1710 nM (inactive); in the test on KM-20L2 it was 579 nM (active); in the test on HCT-15, 1300 nM; with K562, 250 nM (active). For the same compound, the values for the GI50 with HOP-62 and in the test on EKVX were 7430 nM (inactive) and 6610 nM (inactive), respectively.

As to `C/C(=N\NC(=S)N1CCN(c2ccccn2)CC1)c1nccs1`, the GI50 was 794 nM (active) in the test on SF-268; 521 nM (active) in the test on MDA-MB-435; 516 nM (active) in the test with UO-31; 955 nM (active) in the test on NCI-H226; 122 nM (active) in the test with UACC-62; 2020 nM (inactive) with BT-549. Further, the GI50 in the test on MDA-N is 431 nM (active); in the test on A498, 1880 nM (inactive); in the test with MCF7, 6.65 nM (active); in the test on SK-MEL-5, 219 nM (active); in the test with RXF 393, 3720 nM (inactive); in the test with HOP-92, 2260 nM (inactive). The GI50 in the test with SK-MEL-28 was 792 nM (active); in the test on SN12C, 1200 nM (inactive); in the test with MOLT-4, < 22.5 nM (active); with KM-20L2, < 29.4 nM (active); with HCT-15 it was 71 nM; with K562 it was 10 nM (active). The GI50 was 1190 nM (inactive) in the test on HOP-62 and 120 nM (active) in the test with EKVX.

Consider `N#CC(NNC(=O)c1ccccc1O)c1c(O)ccc2ccccc12` (stereo not given), for which the GI50 in the test with SF-268 was 3240 nM (inactive); in the test with MDA-MB-435, 8530 nM (inactive); with UO-31, 2920 nM (inactive); in the test with NCI-H226 it was 3710 nM (inactive); with UACC-62, 2610 nM (inactive); with BT-549, 7110 nM (inactive). Further, the GI50 in the test on MDA-N was 5160 nM (inactive); in the test on A498, 34700 nM (inactive); with MCF7, 4500 nM (inactive); in the test with SK-MEL-5, 2670 nM (inactive); in the test with RXF 393, 2750 nM (inactive); with HOP-92, 5710 nM (inactive). Further, the GI50 in the test on SK-MEL-28 was 9330 nM (inactive); in the test on SN12C it was 7640 nM (inactive); with MOLT-4, 2260 nM (inactive); in the test on KM-20L2, 17900 nM (inactive); in the test with HCT-15 it was 2890 nM; in the test with K562, 2900 nM (inactive). For the same compound, the results for the GI50 in the test with HOP-62 and in the test with EKVX were 3330 nM (inactive) and 5660 nM (inactive), respectively.
